From BindingDB's records for doi:10.1021/acs.jmedchem.0c00830 (University of East Anglia, 2020) come the findings set out here.

This assay has as its target Histone deacetylase 3/Nuclear receptor corepressor 2 (HDAC3/NCoR2) (Homo sapiens, UniProt O15379+Q9Y618). The assay can be described thus: Inhibition of human C-terminal His-tagged HDAC3 (1 to 428 residues)/human N-terminal GST-tagged NcoR2 (395 to 489 residues) expressed in sf9 cells using p53 (379 to 382 residues) (Arg-His-Lys(Ac)-Lys(Ac)) as substrate by fluorimetric assay.

Chain of Histone deacetylase 3/Nuclear receptor corepressor 2 (HDAC3/NCoR2) (O15379 whole entry, the tested form may be a part): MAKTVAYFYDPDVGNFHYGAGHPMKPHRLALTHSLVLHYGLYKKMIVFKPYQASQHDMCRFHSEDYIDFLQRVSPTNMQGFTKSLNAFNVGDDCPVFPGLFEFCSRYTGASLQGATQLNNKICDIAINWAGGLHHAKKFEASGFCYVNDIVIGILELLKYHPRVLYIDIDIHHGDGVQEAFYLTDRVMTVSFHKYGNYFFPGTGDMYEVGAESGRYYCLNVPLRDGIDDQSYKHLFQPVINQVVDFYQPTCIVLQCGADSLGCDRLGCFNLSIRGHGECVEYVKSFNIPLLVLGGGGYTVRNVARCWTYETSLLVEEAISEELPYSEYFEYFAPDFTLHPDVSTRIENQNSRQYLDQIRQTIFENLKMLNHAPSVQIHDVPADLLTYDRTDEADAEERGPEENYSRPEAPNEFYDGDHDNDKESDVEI
Chain of Histone deacetylase 3/Nuclear receptor corepressor 2 (HDAC3/NCoR2) (Q9Y618 whole entry, the tested form may be a part): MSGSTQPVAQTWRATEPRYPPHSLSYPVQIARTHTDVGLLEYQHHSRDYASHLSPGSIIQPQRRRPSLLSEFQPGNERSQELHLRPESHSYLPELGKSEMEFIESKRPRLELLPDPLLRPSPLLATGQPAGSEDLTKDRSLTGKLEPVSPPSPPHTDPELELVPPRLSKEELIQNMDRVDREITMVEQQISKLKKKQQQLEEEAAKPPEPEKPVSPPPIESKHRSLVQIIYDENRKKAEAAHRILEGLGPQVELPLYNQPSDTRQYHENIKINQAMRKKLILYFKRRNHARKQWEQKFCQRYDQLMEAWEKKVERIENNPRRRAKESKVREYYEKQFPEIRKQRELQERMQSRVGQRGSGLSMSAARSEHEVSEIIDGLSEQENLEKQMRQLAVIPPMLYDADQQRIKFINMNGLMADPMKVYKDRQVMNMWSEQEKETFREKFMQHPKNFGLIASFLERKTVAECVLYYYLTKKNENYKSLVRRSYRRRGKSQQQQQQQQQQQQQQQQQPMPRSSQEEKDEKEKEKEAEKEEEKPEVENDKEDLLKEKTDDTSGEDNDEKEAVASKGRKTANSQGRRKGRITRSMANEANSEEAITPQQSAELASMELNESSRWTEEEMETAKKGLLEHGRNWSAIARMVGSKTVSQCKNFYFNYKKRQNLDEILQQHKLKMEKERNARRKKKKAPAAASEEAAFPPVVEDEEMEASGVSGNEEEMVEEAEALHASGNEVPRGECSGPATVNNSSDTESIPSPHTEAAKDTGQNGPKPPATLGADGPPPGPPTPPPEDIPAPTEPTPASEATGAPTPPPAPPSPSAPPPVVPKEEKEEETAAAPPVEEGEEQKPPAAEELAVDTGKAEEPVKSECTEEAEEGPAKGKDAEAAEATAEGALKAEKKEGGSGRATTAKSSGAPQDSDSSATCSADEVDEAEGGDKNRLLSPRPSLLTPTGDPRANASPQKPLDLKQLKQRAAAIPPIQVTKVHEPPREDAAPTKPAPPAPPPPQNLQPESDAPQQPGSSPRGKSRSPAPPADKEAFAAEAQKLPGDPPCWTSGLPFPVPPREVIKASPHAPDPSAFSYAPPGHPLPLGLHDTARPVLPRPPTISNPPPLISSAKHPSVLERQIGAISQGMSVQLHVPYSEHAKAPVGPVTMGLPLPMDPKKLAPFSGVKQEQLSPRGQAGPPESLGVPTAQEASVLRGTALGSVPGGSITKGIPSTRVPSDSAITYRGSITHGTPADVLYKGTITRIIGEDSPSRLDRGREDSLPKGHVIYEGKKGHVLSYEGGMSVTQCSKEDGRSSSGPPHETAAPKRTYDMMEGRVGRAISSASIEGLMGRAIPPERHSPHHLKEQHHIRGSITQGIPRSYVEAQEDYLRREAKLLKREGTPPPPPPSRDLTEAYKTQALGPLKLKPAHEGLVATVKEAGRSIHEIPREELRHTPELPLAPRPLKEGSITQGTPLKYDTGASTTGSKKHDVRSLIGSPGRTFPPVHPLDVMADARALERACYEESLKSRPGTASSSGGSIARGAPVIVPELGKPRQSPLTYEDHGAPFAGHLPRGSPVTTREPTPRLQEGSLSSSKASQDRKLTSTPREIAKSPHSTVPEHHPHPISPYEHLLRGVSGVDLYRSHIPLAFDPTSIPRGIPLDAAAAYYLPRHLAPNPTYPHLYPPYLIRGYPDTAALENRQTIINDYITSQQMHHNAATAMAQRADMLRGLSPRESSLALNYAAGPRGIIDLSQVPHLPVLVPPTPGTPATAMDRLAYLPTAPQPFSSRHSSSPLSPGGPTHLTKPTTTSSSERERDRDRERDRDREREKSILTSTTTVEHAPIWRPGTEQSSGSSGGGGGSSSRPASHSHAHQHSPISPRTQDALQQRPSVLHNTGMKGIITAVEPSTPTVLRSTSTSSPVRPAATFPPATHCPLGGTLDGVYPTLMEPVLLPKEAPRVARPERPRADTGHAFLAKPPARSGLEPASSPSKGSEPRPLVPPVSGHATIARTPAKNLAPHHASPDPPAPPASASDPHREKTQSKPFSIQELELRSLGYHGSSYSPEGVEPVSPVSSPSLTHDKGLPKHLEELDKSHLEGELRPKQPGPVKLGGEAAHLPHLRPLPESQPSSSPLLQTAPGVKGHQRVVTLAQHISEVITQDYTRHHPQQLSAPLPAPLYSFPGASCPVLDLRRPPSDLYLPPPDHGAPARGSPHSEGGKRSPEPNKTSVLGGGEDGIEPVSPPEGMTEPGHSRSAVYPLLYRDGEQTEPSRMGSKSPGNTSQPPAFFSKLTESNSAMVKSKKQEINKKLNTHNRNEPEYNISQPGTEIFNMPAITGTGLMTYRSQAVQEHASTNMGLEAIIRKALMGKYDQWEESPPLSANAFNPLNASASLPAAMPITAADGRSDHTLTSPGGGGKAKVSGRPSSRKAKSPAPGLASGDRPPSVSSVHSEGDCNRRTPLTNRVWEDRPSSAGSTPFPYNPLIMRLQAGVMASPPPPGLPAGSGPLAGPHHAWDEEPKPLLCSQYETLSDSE

What is called IC50 is the point on the concentration scale where inhibition reaches its midpoint. `CCCCNNC(=O)c1ccc(Br)cc1` [UF010] displayed an IC50 of 60 nM.
